Experimental data reported in patent publication US20200017495A1, “NOVEL HETEROCYCLIC COMPOUNDS AND THEIR USE IN PREVENTING OR TREATING BACTERIAL INFECTIONS” (priority 2017, published 2020).

Tested on: Enterobacter cloacae (ECL) isolates
Experiment: MIC of compounds alone and combined with antibacterials, broth microdilution (CLSI)
Format: cell-based
Method in brief: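 Antibacterial MICs in combination were determined at every compound concentration tested, alongside compound MICs alone. Bacteria grew in cation-adjusted Mueller-Hinton broth starting from 5.10^5 CFU/mL, incubated at 35° C for 16-20 h, and endpoints were the lowest concentrations with no visible growth.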

C=CC1=C(C(=O)O)N2C(=O)[C@@H](NC(=O)/C(=N\OCC(=O)O)c3csc(N)n3)[C@H]2SC1 [FIX, Cefixime]
64 µg/mL: MIC ATB in combination (ECL UFR84, AF3 @ 8 μg/mL)
1 µg/mL: MIC ATB in combination (ECL UFR85, AF3 @ 8 μg/mL) | MIC ATB in combination (ECL UFR200, AF2 @ 8 μg/mL)
0.5 µg/mL: MIC ATB in combination (ECL UFR200, AF3 @ 8 μg/mL) | MIC ATB in combination (strain ECL UFR195, with AF3 @ 8 μg/mL)
4 µg/mL: MIC ATB in combination (ECL P99, AF2 @ 8 μg/mL) | MIC ATB in combination (ECL UFR13, AF2 @ 8 μg/mL) | MIC (strain ECL UFR194, genotype OXA-48) | MIC ATB in combination (strain ECL UFR197, with AF3 @ 8 μg/mL)
16 µg/mL: MIC ATB in combination (ECL NEM146383, AF3 @ 8 μg/mL) | MIC ATB in combination (ECL UFR200, CLA @ 4 μg/mL) | MIC (strain ECL UFR12, genotype CTX-M-9, OXA-48)
>128 µg/mL: MIC ATB in combination (ECL NEM146383, AF2 @ 8 μg/mL) | MIC ATB in combination (ECL NEM146383, CLA @ 4 μg/mL) | MIC ATB in combination (ECL P99, CLA @ 4 μg/mL) | MIC ATB in combination (ECL UFR14, CLA @ 4 μg/mL) | MIC ATB in combination (ECL UFR38, AF3 @ 8 μg/mL) | MIC ATB in combination (ECL UFR38, CLA @ 4 μg/mL) | MIC ATB in combination (ECL UFR51, CLA @ 4 μg/mL) | MIC ATB in combination (ECL UFR70, CLA @ 4 μg/mL) | MIC ATB in combination (ECL UFR84, AF2 @ 8 μg/mL) | MIC ATB in combination (ECL UFR84, CLA @ 4 μg/mL) | MIC ATB in combination (ECL UFR85, CLA @ 4 μg/mL) | MIC (strain ECL 2185D, genotype OXA-163) | MIC (strain ECL 190310, genotype AmpC) | MIC (strain ECL 200138, genotype AmpC) | MIC (strain ECL 200322, genotype TEM-1, CTX-M-15, OXA-1) | MIC (strain ECL 260033, genotype AmpC) | MIC (strain ECL 260253, genotype TEM-1, KPC-3) | MIC (strain ECL 260323, genotype AmpC) | MIC (strain ECL 260508, genotype TEM-1, CTX-M-15) | MIC (strain ECL HAN, genotype OXA-35) | MIC (strain ECL NEM146383, genotype AmpC) | MIC (strain ECL P99, genotype AmpC) | MIC (strain ECL UFR13, genotype TEM-1, SHV-12, CTX-M-9, OXA-48) | MIC (strain ECL UFR14, genotype TEM-1, SHV-12, CTX-M-15, DHA-1, OXA-1, OXA-48) | MIC (strain ECL UFR38, genotype CTX-M-15, NDM-1) | MIC (strain ECL UFR51, genotype SHV-12, IMP-8) | MIC (strain ECL UFR60, genotype TEM-1, CTX-M-15, KPC-2) | MIC (strain ECL UFR70, genotype TEM-1, CTX-M-15, CMY-2, OXA-1, Porin loss) | MIC (strain ECL UFR84, genotype TEM-1, AmpC, OXA-1) | MIC (strain ECL UFR85, genotype TEM-1, CTX-M-15, AmpC) | MIC (strain ECL UFR192, genotype TEM-1, NDM-1, antibiotic alone) | MIC ATB in combination (strain ECL UFR192, with AF2 @ 8 μg/mL) | MIC ATB in combination (strain ECL UFR192, with AF3 @ 8 μg/mL) | MIC ATB in combination (strain ECL UFR192, with CLA @ 4 μg/mL) | MIC (strain ECL UFR193, genotype TEM-1, CTX-M-15, OXA-1, NDM-1, RmtC, antibiotic alone) | MIC ATB in combination (strain ECL UFR193, with AF2 @ 8 μg/mL) | MIC ATB in combination (strain ECL UFR193, with CLA @ 4 μg/mL) | MIC (strain ECL UFR195, genotype TEM-1, CTX-M-15, OXA-1, OXA-48) | MIC ATB in combination (strain ECL UFR195, with CLA @ 4 μg/mL) | MIC (strain ECL UFR196, genotype TEM-1, CTX-M-15, OXA-1, OXA-48) | MIC ATB in combination (strain ECL UFR196, with CLA @ 4 μg/mL) | MIC (strain ECL UFR197, genotype TEM-1, CTX-M-15, OXA-1, OXA-48) | MIC (strain ECL UFR198, genotype TEM-1, SHV-12, CTX-M-15, DHA-1, OXA-1, OXA-48) | MIC ATB in combination (strain ECL UFR198, with CLA @ 4 μg/mL) | MIC (strain ECL UFR200, genotype TEM-1, SHV-12, KPC-2) | MIC (strain ECL UFR203, genotype TEM-1, SHV-12, VIM-1, antibiotic alone) | MIC ATB in combination (strain ECL UFR203, with AF2 @ 8 μg/mL) | MIC ATB in combination (strain ECL UFR203, with AF3 @ 8 μg/mL) | MIC ATB in combination (strain ECL UFR203, with CLA @ 4 μg/mL) | MIC (strain ECL UFR214, genotype TEM-1, SHV-31, CTX-M-15, VIM-4, antibiotic alone) | MIC ATB in combination (strain ECL UFR214, with AF2 @ 8 μg/mL) | MIC ATB in combination (strain ECL UFR214, with AF3 @ 8 μg/mL) | MIC ATB in combination (strain ECL UFR214, with CLA @ 4 μg/mL) | MIC (strain ECL UFR252PT, genotype VIM-2, antibiotic alone) | MIC ATB in combination (strain ECL UFR252PT, with AF2 @ 8 μg/mL) | MIC ATB in combination (strain ECL UFR252PT, with AF3 @ 8 μg/mL) | MIC ATB in combination (strain ECL UFR252PT, with CLA @ 4 μg/mL)
32 µg/mL: MIC ATB in combination (ECL UFR14, AF2 @ 8 μg/mL) | MIC ATB in combination (ECL UFR14, AF3 @ 8 μg/mL) | MIC ATB in combination (strain ECL UFR197, with AF2 @ 8 μg/mL) | MIC ATB in combination (strain ECL UFR198, with AF3 @ 8 μg/mL)
8 µg/mL: MIC ATB in combination (ECL P99, AF3 @ 8 μg/mL) | MIC ATB in combination (ECL UFR12, CLA @ 4 μg/mL) | MIC ATB in combination (ECL UFR60, AF3 @ 8 μg/mL) | MIC ATB in combination (strain ECL UFR194, with CLA @ 4 μg/mL) | MIC ATB in combination (strain ECL UFR195, with AF2 @ 8 μg/mL) | MIC ATB in combination (strain ECL UFR196, with AF2 @ 8 μg/mL)
<=0.25 μg/mL: MIC ATB in combination (ECL UFR12, AF2 @ 8 μg/mL) | MIC ATB in combination (ECL UFR12, AF3 @ 8 μg/mL) | MIC ATB in combination (ECL UFR70, AF2 @ 8 μg/mL) | MIC ATB in combination (strain ECL UFR193, with AF3 @ 8 μg/mL) | MIC ATB in combination (strain ECL UFR194, with AF2 @ 8 μg/mL) | MIC ATB in combination (strain ECL UFR194, with AF3 @ 8 μg/mL)
2 µg/mL: MIC ATB in combination (ECL UFR13, AF3 @ 8 μg/mL) | MIC ATB in combination (strain ECL UFR196, with AF3 @ 8 μg/mL)
128 µg/mL: MIC ATB in combination (ECL UFR13, CLA @ 4 μg/mL) | MIC ATB in combination (ECL UFR60, AF2 @ 8 μg/mL) | MIC ATB in combination (ECL UFR60, CLA @ 4 μg/mL) | MIC ATB in combination (strain ECL UFR197, with CLA @ 4 μg/mL) | MIC ATB in combination (strain ECL UFR198, with AF2 @ 8 μg/mL)
512 µg/mL: MIC (strain ECL 190408, genotype TEM-1, CTX-M-15, OXA-1)
<0.25 µg/mL: MIC ATB in combination (ECL UFR38, AF2 @ 8 μg/mL) | MIC ATB in combination (ECL UFR51, AF2 @ 8 μg/mL) | MIC ATB in combination (ECL UFR51, AF3 @ 8 μg/mL) | MIC ATB in combination (ECL UFR70, AF3 @ 8 μg/mL) | MIC ATB in combination (ECL UFR85, AF2 @ 8 μg/mL)
